Earlier results in patent publication US20200236925A1, “METHODS AND FORMULATIONS FOR PREVENTING DOWNWARD MIGRATION OF AGRICULTURAL MATERIALS” (BAYER CROPSCIENCE LP, priority 2019, published 2020).

Key:
hybrid bermudagrass [1] = conditions: application rate increased from 35 to 53 g ha-1; SOC ≤0.3% w w-1
hybrid bermudagrass [2] = conditions: 35 or 52 g ha-1, fall or spring treatments

In the case of `Cc1ccc2c(c1)[C@H](Nc1nc(N)nc(C(C)F)n1)[C@@H](C)C2` (mixture of isomers) [indaziflam, N2-[(1R,2S)-2,3-dihydro-2,6-dimethyl-1H-inden-1-yl]-6-[(1RS)-1-fluoroethyl]-1,3,5-triazine-2,4-diamine], the “solubility in distilled water” value (distilled water) is given as 2.8 µg/mL, the field-T1/2 (field persistence) is given as greater than 150 days and the “aqueous solubility (Ks)” value (pH 7) is given as 2.4 µg/mL. For the same molecule, the “increase of hybrid bermudagrass injury” value (hybrid bermudagrass [1]) was greater than 10 fold and the “hybrid bermudagrass root strength vs nontreated” value (hybrid bermudagrass [2]) was “no differences in hybrid bermudagrass root strength”.
